From patent US20070025974A1, “Amylases producing an altered immunogenic response and methods of making and using the same” (priority 2003, published 2007)

Tested on: human CD4+ T-cells
Test: I-MUNE assay: T-cell proliferation (tritiated thymidine) with dendritic cells and CD4+ T-cells
Format: cell-based
Settings: approximately 5 Lf/mL

tetanus toxoid
positive control proliferative response: robust positive control responses
